Laboratory results as given in ChEMBL document CHEMBL1156925, “Synthesis, structure-activity relationship and crystallographic studies of 3-substituted indolin-2-one RET inhibitors” (Bioorg Med Chem, 2010).

Tests used:
[1] = target: ALK tyrosine kinase receptor (Homo sapiens, UniProt Q9UM73); assay: Inhibition of ALK by ELISA-based kinase assay
cells [2] = details: Mus musculus, BaPTC2
[3] = target: Tyrosine-protein kinase ABL1 (Homo sapiens, UniProt P00519)
[4] = target: T1, Receptor-type tyrosine-protein kinase FLT3 (Homo sapiens, UniProt P36888); assay: Inhibition of FLT3 by ELISA-based kinase assay
T1 sequence (P36888 whole entry): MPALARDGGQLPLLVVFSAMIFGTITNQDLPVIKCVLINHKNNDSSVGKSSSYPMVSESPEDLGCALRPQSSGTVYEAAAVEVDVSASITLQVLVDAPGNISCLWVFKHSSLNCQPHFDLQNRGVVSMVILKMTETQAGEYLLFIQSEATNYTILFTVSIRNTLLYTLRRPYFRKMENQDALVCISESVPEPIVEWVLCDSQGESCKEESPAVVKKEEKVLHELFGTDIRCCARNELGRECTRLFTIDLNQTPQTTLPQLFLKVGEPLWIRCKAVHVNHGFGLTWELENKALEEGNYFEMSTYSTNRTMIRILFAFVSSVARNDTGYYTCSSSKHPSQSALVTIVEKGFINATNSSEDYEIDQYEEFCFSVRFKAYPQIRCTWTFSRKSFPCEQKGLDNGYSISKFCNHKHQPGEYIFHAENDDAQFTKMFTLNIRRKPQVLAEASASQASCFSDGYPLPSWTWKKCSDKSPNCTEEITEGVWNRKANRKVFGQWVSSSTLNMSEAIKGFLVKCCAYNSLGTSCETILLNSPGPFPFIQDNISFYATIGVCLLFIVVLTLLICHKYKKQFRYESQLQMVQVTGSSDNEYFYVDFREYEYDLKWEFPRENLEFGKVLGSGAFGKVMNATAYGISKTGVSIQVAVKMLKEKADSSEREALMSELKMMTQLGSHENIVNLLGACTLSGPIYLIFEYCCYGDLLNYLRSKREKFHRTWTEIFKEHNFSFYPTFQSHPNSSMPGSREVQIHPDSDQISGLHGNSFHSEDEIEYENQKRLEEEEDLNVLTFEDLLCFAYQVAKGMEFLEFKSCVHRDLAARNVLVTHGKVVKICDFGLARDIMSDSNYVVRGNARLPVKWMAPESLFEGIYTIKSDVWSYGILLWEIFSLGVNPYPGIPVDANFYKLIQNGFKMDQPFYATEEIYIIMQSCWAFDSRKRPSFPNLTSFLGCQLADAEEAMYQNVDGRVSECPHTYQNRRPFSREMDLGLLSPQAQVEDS

cells [5] = details: Mus musculus, BaF3

Sequence of Tyrosine-protein kinase ABL1 (P00519 whole entry): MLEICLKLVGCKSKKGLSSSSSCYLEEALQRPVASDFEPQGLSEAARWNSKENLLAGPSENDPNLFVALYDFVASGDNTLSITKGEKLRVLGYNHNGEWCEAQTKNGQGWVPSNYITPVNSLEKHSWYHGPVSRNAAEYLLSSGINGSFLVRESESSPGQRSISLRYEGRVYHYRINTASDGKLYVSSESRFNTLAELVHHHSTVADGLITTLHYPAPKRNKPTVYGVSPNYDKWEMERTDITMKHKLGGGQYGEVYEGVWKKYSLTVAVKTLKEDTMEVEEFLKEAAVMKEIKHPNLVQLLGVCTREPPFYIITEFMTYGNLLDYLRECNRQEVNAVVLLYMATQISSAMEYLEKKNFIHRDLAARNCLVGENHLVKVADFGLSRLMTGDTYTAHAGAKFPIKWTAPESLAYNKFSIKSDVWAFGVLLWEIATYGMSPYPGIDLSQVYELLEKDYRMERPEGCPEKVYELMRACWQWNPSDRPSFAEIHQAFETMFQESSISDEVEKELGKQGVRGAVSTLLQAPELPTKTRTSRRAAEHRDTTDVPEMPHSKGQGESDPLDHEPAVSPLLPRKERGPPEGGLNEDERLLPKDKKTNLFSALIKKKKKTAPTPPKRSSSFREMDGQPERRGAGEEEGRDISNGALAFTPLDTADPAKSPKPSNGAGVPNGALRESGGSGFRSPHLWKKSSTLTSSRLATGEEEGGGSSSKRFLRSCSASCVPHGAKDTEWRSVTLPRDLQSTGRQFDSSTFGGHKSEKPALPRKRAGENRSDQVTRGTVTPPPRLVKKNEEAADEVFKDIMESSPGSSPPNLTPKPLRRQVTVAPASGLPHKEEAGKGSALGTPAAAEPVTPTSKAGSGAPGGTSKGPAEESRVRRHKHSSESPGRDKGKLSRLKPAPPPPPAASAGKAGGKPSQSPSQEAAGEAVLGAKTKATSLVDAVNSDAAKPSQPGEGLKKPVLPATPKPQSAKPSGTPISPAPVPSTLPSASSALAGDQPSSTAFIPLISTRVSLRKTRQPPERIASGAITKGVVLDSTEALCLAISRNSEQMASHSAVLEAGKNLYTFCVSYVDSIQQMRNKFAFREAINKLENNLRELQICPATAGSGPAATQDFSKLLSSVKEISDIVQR
Sequence of ALK tyrosine kinase receptor (Q9UM73 whole entry): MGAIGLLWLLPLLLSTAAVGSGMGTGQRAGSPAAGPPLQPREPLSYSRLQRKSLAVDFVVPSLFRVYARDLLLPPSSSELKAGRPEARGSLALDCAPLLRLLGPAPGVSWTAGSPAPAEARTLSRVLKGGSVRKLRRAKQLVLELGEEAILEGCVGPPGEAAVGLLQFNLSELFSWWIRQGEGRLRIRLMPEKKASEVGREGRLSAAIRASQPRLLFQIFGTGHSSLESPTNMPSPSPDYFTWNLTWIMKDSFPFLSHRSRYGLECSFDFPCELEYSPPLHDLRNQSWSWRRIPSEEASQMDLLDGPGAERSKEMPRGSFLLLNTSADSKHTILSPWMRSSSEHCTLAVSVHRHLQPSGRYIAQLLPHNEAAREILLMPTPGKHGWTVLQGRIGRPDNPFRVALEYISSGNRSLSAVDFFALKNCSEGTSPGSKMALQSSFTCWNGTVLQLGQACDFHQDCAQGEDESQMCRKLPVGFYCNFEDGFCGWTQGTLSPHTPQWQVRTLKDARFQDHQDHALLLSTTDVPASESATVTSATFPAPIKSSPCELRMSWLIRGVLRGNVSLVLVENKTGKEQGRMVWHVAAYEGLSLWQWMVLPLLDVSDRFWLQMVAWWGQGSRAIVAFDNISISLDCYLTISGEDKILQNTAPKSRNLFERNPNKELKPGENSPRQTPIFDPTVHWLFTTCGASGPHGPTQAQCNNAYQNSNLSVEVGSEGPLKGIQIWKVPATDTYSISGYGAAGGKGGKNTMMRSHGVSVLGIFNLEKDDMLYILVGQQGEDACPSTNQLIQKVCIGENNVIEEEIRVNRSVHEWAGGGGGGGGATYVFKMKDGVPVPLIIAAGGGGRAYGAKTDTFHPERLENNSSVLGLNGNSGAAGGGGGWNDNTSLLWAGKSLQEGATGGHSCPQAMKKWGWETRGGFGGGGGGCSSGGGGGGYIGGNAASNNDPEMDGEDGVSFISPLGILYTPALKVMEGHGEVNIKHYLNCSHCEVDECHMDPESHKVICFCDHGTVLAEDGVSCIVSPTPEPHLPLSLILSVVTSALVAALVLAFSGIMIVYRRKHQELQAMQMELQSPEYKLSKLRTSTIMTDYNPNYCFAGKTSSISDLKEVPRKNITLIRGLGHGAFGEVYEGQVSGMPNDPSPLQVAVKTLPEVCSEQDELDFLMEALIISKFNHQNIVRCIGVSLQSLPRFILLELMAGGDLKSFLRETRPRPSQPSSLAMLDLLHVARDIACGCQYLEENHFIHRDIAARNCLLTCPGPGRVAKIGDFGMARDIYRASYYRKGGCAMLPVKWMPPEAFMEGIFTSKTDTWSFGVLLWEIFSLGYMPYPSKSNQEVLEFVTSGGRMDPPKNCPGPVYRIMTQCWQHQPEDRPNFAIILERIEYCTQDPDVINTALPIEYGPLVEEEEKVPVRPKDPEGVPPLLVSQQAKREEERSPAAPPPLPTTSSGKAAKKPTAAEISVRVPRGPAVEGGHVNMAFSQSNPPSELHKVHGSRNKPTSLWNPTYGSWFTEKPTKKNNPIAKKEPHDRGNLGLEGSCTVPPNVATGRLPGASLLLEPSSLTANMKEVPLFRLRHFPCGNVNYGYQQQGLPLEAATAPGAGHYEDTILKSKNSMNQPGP

| SMILES | IC50 [1] [µM] | IC50 (cells [2]) [µM] | IC50 [3] [µM] | IC50 [4] [µM] | IC50 (cells [5]) [µM] |
| --- | --- | --- | --- | --- | --- |
| O=C1Nc2ccccc2/C1=C\c1ccc(O)cc1 | > 50 | 16 | > 50 | 1.8 | > 50 |
| Cc1cccc2c1/C(=C/c1ccc(N(C)C)c3ccccc13)C(=O)N2 | > 50 | 10 | > 50 | 0.4 | 10 |
| CN(C)S(=O)(=O)c1ccc2c(c1)/C(=C/c1cc3c([nH]1)CCCC3)C(=O)N2 | 18 | 0.16 | > 50 | 8.7 | 0.18 |
| CCOC(=O)c1c(C)[nH]c(/C=C2\C(=O)Nc3ccccc32)c1C | 5.4 | 0.025 | 19 | 4.3 | 2.6 |
| CCN(CC)CCNC(=O)c1c(C)[nH]c(/C=C2\C(=O)Nc3ccc(F)cc32)c1C [SUNITINIB] |  | 0.22 |  |  | 1.2 |
